Results reported in patent US5409933A, “Quinoline derivatives and processes for preparing the same” (priority 1993, dated 1995).
Where a name gives a salt, the structure may show the parent alone. Read-outs that look alike come from different tables or passages of the source.

Columns and labels:
Test in all cases: In Vitro Anti-Bacterial Activity Test (MIC, agar dilution)
Assay type in all cases: cell-based
Escherichia coli DC0 = conditions: Muller-Hinton agar, 37° C., 18 hours, read-out: MIC
How it was run: (§1)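 Muller-Hinton agar dilution method. Inoculum 10^7 C.F.U./ml; 37° C., 18 h. Endpoint: minimum inhibitory concentration by growth inspection. Ciprofloxacin control.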

[1] = system: Staphylococcus aureus SG511; conditions: Staphylococcus aureus SG511; Muller-Hinton agar, 37° C., 18 hours; read-out: MIC
How it was run: as §1

Escherichia coli TEM = conditions: Escherichia coli, 18 h, Muller-Hinton agar, 37° C.
How it was run: (§2)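 Read-out is visual growth inhibition on compound-containing Muller-Hinton agar, giving the MIC. Bacteria (10^7 C.F.U./ml) incubate 18 hours at 37° C.; ciprofloxacin is included as comparator drug.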

[2] = system: Streptococcus pyogenes 77A
How it was run: as §1

[3] = system: Streptococcus faecium MD8b; conditions: Enterococcus faecium, Muller-Hinton agar, 37° C., 18 hours, read-out: MIC
How it was run: as §1

[4] = system: Pseudomonas aeruginosa 9027; conditions: Muller-Hinton agar, 37° C., 18 hours, read-out: MIC
How it was run: as §1

[5] = system: Klebsiella aerogenes 1522E; conditions: Klebsiella aerogenes, 1522E, 18 h, Klebsiella aerogenes 1522E; Muller-Hinton agar, 37° C., 18 hours; read-out: MIC
How it was run: as §1

[6] = system: Staphylococcus aureus 503; conditions: Staphylococcus aureus 503; Muller-Hinton agar, 37° C., 18 hours; read-out: MIC
How it was run: as §1

Escherichia coli DC2 = conditions: Escherichia coli, DC2, 18 h
How it was run: as §1

Escherichia coli 1507E = conditions: Escherichia coli, 1507E, 18 h, Muller-Hinton agar, 37° C.
How it was run: as §1

Klebsiella oxytoca 1082E = conditions: Klebsiella oxytoca 1082E; Muller-Hinton agar, 37° C., 18 hours; read-out: MIC
How it was run: as §1

[7] = system: Enterobacter cloacae 1321E
How it was run: as §1

[8] = system: Pseudomonas aeruginosa 1592E; conditions: Muller-Hinton agar, 37° C., 18 hours, read-out: MIC
How it was run: as §1

Escherichia coli 078 = system: Escherichia coli 078
How it was run: as §1

[9] = system: Staphylococcus aureus 285; conditions: Staphylococcus aureus, 285, 18 h, Staphylococcus aureus 285; Muller-Hinton agar, 37° C., 18 hours; read-out: MIC
How it was run: as §1

[10] = system: Streptococcus pyogenes 308A; conditions: Muller-Hinton agar, 37° C., 18 hours, read-out: MIC
How it was run: as §1

[11] = system: Pseudomonas aeruginosa 1771M; conditions: Pseudomonas aeruginosa, 1771M, 18 h, Muller-Hinton agar, 37° C.
How it was run: as §1

Enterobacter cloacae P99 = conditions: Enterobacter cloacae, P99, 18 h
How it was run: as §2

[12] = system: Pseudomonas aeruginosa 1771; conditions: Pseudomonas aeruginosa 1771; Muller-Hinton agar, 37° C., 18 hours; read-out: MIC
How it was run: as §1

Salmonella typhimurium = conditions: Salmonella enterica; Salmonella typhimurium; Muller-Hinton agar, 37° C., 18 hours; read-out: MIC
How it was run: as §1

[13] = Streptococcus pyogenes 77A, Muller-Hinton agar, 37° C., 18 hours, read-out: MIC
[14] = Enterobacter cloacae, 1321E, 18 h
[15] = Enterobacter cloacae 1321E, Muller-Hinton agar, 37° C., 18 hours, read-out: MIC
[16] = Streptococcus pyogenes, 77A, 18 h

| Compound | MIC (Escherichia coli DC0) [µg/mL] | MIC [1] [µg/mL] | MIC (Escherichia coli TEM) [µg/mL] | MIC [2, 13] [µg/mL] | MIC [3] [µg/mL] | MIC [4] [µg/mL] | MIC [5] [µg/mL] | MIC [6] [µg/mL] | MIC (Escherichia coli DC2) [µg/mL] | MIC (Escherichia coli 1507E) [µg/mL] | MIC (Klebsiella oxytoca 1082E) [µg/mL] | MIC [8] [µg/mL] | MIC (Escherichia coli 078; Escherichia coli, 078, 18 h) [µg/mL] | MIC [9] [µg/mL] | MIC [10] [µg/mL] | MIC [11] [µg/mL] | MIC (Enterobacter cloacae P99) [µg/mL] | MIC [12] [µg/mL] | MIC (Salmonella typhimurium) [µg/mL] | MIC [7, 15] [µg/mL] | further results |
| --- | --- | --- | --- | --- | --- | --- | --- | --- | --- | --- | --- | --- | --- | --- | --- | --- | --- | --- | --- | --- | --- |
| NC1CCN(c2cc3c(cc2F)c(=O)c(C(=O)C[N+](=O)[O-])cn3-c2ccc(F)cc2F)C1 (stereo not shown) [Example 9, 1-(2,4-difluorophenyl)-6-fluoro-7-(3-aminopyrrolidin-1-yl)-3-(2-nitroacetyl)-1,4-dihydro-4-oxoquinoline hydrochloride] | 0.195 | 0.025 | < 0.002 | 0.195 | 0.195 | 0.391 | 0.004 | 0.013 | 0.025 | 0.013 | < 0.002 | 0.098 | 0.007 | 0.025 | 0.195 | 0.049 | < 0.002 | 0.195 | 0.007 | – | MIC [7, 14]: 0.007 µg/mL |
| CN[C@H]1CCN(c2c(F)cc3c(=O)c(C(=O)C[N+](=O)[O-])cn(C4CC4)c3c2Cl)C1 [Example 62, 1-cyclopropyl-6-fluoro-8-chloro-7-(3-3S-methylaminopyrrolidin-1-yl)-3-(2-nitroacetyl)-1,4-dihydro-4-oxoquinoline hydrochloride] | 0.025 | 0.013 | 0.007 | 0.049 | 0.049 | 0.195 | 0.007 | 0.013 | 0.013 | 0.007 | < 0.002 | 0.098 | – | 0.025 | 0.098 | 0.098 | 0.007 | 0.098 | 0.025 | – | MIC [7, 14]: 0.007 µg/mL; MIC (Escherichia coli 078; Escherichia coli 078, Muller-Hinton agar, 37° C., 18 hours, read-out: MIC): < 0.002 µg/mL |
| CC(=O)CC(=O)c1cn(C2CC2)c2c(Cl)c(N3CCC(N)C3)c(F)cc2c1=O (stereo not shown) [Example 37, 1-cyclopropyl-6-fluoro-8-chloro-7-(3-aminopyrrolidin-1-yl)-3-(2-acetoacetyl)-1,4-dihydro-4-oxoquinoline hydrochloride] | 0.781 | 0.781 | 0.098 | 3.12 | 3.12 | 1.56 | 0.391 | 0.781 | 0.391 | 0.195 | 0.195 | 3.12 | 0.391 | 0.781 | 1.56 | 0.781 | 0.195 | 1.56 | 0.195 | 0.195 | – |
| CN[C@@H]1CCN(c2c(F)cc3c(=O)c(C(=O)C[N+](=O)[O-])cn(C4CC4)c3c2OC)C1 [Example 64, 1-cyclopropyl-6-fluoro-8-methoxy-7-(3-3R-methylaminopyrrolidin-1-yl)-3-(2-nitroacetyl)-1,4-dihydro-4-oxoquinoline hydrochloride] | 0.391 | 0.391 | 0.049 | – | 0.391 | 1.56 | 0.098 | 0.098 | 0.049 | 0.098 | 0.007 | 1.56 | 0.049 | 0.098 | 0.781 | 0.781 | 0.049 | 0.781 | 0.013 | 0.049 | MIC [2, 16]: 0.781 µg/mL |
| CNC1CCN(c2c(F)cc3c(=O)c(C(=O)C[N+](=O)[O-])cn(C4CC4)c3c2OC)C1 (stereo not shown) [Example 66, 1-cyclopropyl-6-fluoro-8-methoxy-7-(3-methylaminopyrrolidin-1-yl)-3-(2-nitroacetyl)-1,4-dihydro-4-oxoquinoline hydrochloride] | 0.781 | 0.391 | 0.195 | – | 0.781 | 1.56 | 0.013 | 0.098 | 0.195 | 0.391 | 0.098 | 1.56 | 0.098 | 0.391 | 1.56 | 1.56 | 0.195 | 1.56 | 0.781 | 0.049 | MIC [2, 16]: 0.781 µg/mL |
